Results on three substances are retold here after patent EP4706646A1, “NOVEL DOUBLE-STRANDED SIRNA, CONJUGATE THEREOF, AND USE THEREOF” (priority 2023, dated 2024).

Data set [1] deals with Hepatitis B virus. In words: HBV-Tg transgenic mouse experiment, serum HBsAg and HBeAg. The class given is in vivo, HBV-Tg transgenic mice, C57B/6N-Tg(1.28HBV)/Vst. The following applies: 3 mg/kg, single subcutaneous dose. The text has this:
Experimental Animals: HBV-Tg transgenic mice, C57B/6N-Tg(1.28HBV)/Vst, SPF-grade males, 6-8 weeks old, weighing 16-20 g, were purchased from Beijing Vitalstar Biotechnology Co.,Ltd., Animal Production Certificate No.: SCXK(Beijing)2019-0002. Animals were housed individually in individual cages by Beijing Vitalstar Biotechnology Co.,Ltd.
Animal Grouping: Based on the quantitative results of serum HBsAg (primary) and HBeAg (secondary), animals were stratified and randomly divided into groups, with 5 animals per group.
(§1) Test Sample Preparation and Administration: The required dosage of drug powder was calculated based on the purity of each test sample. At a dosing concentration of 0.6 mg/mL, the corresponding saline solution was added and mixed by vortexing until a colorless, transparent liquid was obtained. The day of the first administration was defined as Day 0. All groups received a single subcutaneous dose of 5 mL/kg on Day 0. If blood sampling was required on the day of dosing, it was performed after blood collection.
Main Outcome Measures: Animals were weighed and blood was collected once on Days 3, 7, 14, 21, 28 and 35. Serum was separated for HBsAg and HBeAg level determination.
Serum HBsAg and HBeAg Level Determination: After blood collection, serum was separated, diluted with PBS, and submitted for analysis. From each sample, 10 µL of serum was removed and diluted to 500 µL (50-fold dilution) with PBS. Serum HBsAg and HBeAg levels were measured using a Hepatitis B e Antigen Assay Kit (Mike Biotech) and a Hepatitis B Surface Antigen Assay Kit (Mike Biotech), respectively.

The test system of data set [2] is hepatitis B virus (HBV). Kind of data set: Anti-HBV activity in the PHH in vitro infection model (transfection or free uptake). Format: cell-based, HBV serotype D. The following applies: for EC50: PHH infected with HBV serotype D, supernatant Day 8. Here is the method:
Transfection and Drug Dosing: On Day 0, revived PHH were adjusted to an appropriate density (6.67E+05 cells/ml) and seeded into 48-well cell culture plates at 1.32E+05 cells per well. On Day 1, HBV serotype D was added to infect PHH (800 GE/cell). On Day 2, fresh medium was replaced. On Day 4, the cell culture medium was discarded, and the test compound was serially diluted to the required concentration, which were then introduced into the cells via transfection using Lipofectamine™ RNAiMAX. The starting concentration of the test compound was 500 pM, and 5-fold dilutions were performed. Seven concentrations were set up in duplicate, with wells containing only the transfection reagent as the medium control. Four to five hours after transfection, fresh medium without compound was replaced. The final DMSO concentration in the medium was 2%. On Day 6, fresh medium without compound was replaced. On Day 8, cell supernatants were harvested, and cell viability was assessed using CCK-8 assay.
Drug Administration via Ad libitum uptake : On day 0, the test compound was diluted to the desired concentration in enzyme-free water, starting at 500 nM. Five-fold dilutions were performed, each with seven concentrations, in duplicate, with 22 µl added to each well of the cell culture plate. Thawed frozen PHHs were plated to an appropriate density (6.67E+05 cells/ml), with 1.32E+05 cells per well. The cells were then plated and allowed to ad libitum uptake of the test compound. On day 1, the medium was changed, and the PHHs were infected with HBV serotype D (800 GE/cell). On day 2, fresh medium was replaced without virus or test compound. The final DMSO concentration in the medium was 2%. On Day 4 and 6, fresh medium without test compound was replaced. On Day 8, cell supernatants were harvested, and cell viability was assessed using CCK-8 assay.
Sample testing: qPCR was used to detect the HBV DNA content in the cell culture supernatant; ELISA was used to detect the HBsAg and HBeAg content in the cell culture supernatant. The experimental results of the double-stranded siRNA conjugate of the present invention reducing the levels of HBsAg, HBeAg and DNA in cells are shown in Table 3. Table 3: Experimental results of the double-stranded siRNA conjugates of the present invention in reducing the levels of HBsAg, HBeAg and DNA in cells

For data set [3], the system named is Hepatitis B virus. In words: Hepatitis B virus AAV mouse experiment, serum HBsAg and HBeAg. Format: in vivo, rAAV8-1.3HBV/C57BL/6 Mouse. The note with it: 3 mg/kg, single subcutaneous dose.
Excerpt: Preparation and Grouping of rAAV8-1.3HBV/C57BL/6 Mouse Model: A persistent HBV infection mouse model was established by tail vein injection of rAAV8-1.3HBV (strain C) into C57 mice. The AAV virus injection dose was 1E+11 vg/mouse. Six weeks after injection, blood samples were collected for analysis of serum HBeAg, HBsAg and ALT levels. Based on the quantitative results of serum HBsAg (primary) and HBeAg (secondary), 35 mice were randomly divided into stratified groups, with 5 mice per group.
as §1, with “collection. Main Outcome Measures: Mice were weighed and blood was collected once on Days 3, 7, 14, 21 and 28. Serum was separated for HBsAg and HBeAg level determination.” for “collection.”
Serum HBsAg and HBeAg Level Determination: After blood collection, serum was separated, diluted with PBS, and submitted for analysis. From each sample, 10 µL of serum was removed and diluted to 500 µL (50-fold dilution) with PBS. Serum HBsAg and HBeAg levels were measured using a Hepatitis B e Antigen Assay Kit and a Hepatitis B Surface Antigen Assay Kit, respectively.

[4] abbreviates: compared with vehicle control group.
[5] abbreviates: No transfection (ad libitum uptake, Day 0), ELISA, read-out: Experimental results EC50 HBeAg.
Setting [6] is: No transfection (ad libitum uptake, Day 0), ELISA, read-out: Experimental results EC50 HBsAg.
Setting [7] is: No transfection (ad libitum uptake, Day 0), qPCR, read-out: Experimental results EC50 DNA.

Like-named read-outs stand apart in the source and are kept apart here.

A word on the EC50: it is the midpoint of the concentration-response curve.

Regarding “S146: double-stranded siRNA conjugate; sense strand-conjugation group SEQ ID NO 21, antisense SEQ ID NO 27 u•G•ugaAYCGaaguGcAcac•u•u (sense GUGUGCACUUCGCUUCYCA; antisense UGUGAAYCGAAGUGCACACUU; conjugation group on sense strand, modifications, key not given here; listed as Albies alba)”, in data set [1] (Figure 1), the “inhibitory activity on HBsAg compared with control DAW30025 (S149)” value is “significantly superior to that of the control group”. Further, the “inhibitory effect on reducing HBeAg” value in data set [1] (setting [4]) is “a certain inhibitory effect”. In data set [1] (compared with vehicle control group, Figure 1), the “inhibitory effects on HBsAg” value was “significant inhibitory effects”. Besides, the EC50 amounted to 2.24 nM in data set [2] (setting [5]); 0.782 nM in data set [2] (setting [6]); 0.737 nM in data set [2] (setting [7]); 0.209 nM in data set [2] (Transfection (RNAiMAX, Day 4), ELISA, read-out: Experimental results EC50 HBeAg); 0.05 nM in data set [2] (Transfection (RNAiMAX, Day 4), ELISA, read-out: Experimental results EC50 HBsAg); 0.082 nM in data set [2] (Transfection (RNAiMAX, Day 4), qPCR, read-out: Experimental results EC50 DNA). Also, the “inhibitory activity against HBsAg, HBeAg and DNA” value in data set [2] (statement in words on Table 3) is reported as “good inhibitory activity”. In data set [2] (without transfection), the “inhibitory activity against HBsAg, HBeAg and DNA compared with control S148” value is “significantly better than that of the control S148”.

Consider “S147: double-stranded siRNA conjugate; sense strand-conjugation group SEQ ID NO 41, antisense SEQ ID NO 27 u•G•ugaAYCGaaguGcAcac•u•u (sense GUGUGCACUUCGCUUYACA; antisense UGUGAAYCGAAGUGCACACUU; conjugation group on sense strand, modifications, key not given here; listed as Albies alba)”, for which the “inhibitory activity against HBsAg compared with controls DAW30025 (S149) and DAW30336 (S151)” value in data set [3] (Figure 2) is listed as “significantly better than that of the controls”. For the same substance, the “inhibitory effect on reducing HBeAg” value in data set [3] (setting [4]) was “a certain inhibitory effect”. Moreover, the “inhibitory effects on HBsAg” value in data set [3] (compared with vehicle control group, Figure 2) is “significant inhibitory effects”.

Take “S148: control double-stranded siRNA conjugate; sense strand-conjugation group SEQ ID NO 42, antisense SEQ ID NO 33 (sense GUGUGCACUUCGCUUCACA; antisense TGTGAAGCGAAGTGCACACTT; conjugation group on sense strand, position not given here; listed as Albies alba) [reference compound]”: the EC50 came out at 7.42 nM in data set [2] (setting [5]), 2.9 nM in data set [2] (setting [6]) and 5.72 nM in data set [2] (setting [7]).
